For 15 compounds, IC50 results are on record in ChEMBL document CHEMBL1152382, “Synthesis of novel quinoxaline derivatives and its cytotoxic activities” (Bioorg Med Chem Lett, 2009).

This test in a line: Cytotoxicity against human HeLaS3 cells after 48 hrs by MTT assay. To be noted: HeLa S3, 48 h. The format is functional, cell-based.

pIC50: −log10 of the molar value. A value given as a limit tells only on which side of the number the result lay.

For orientation: pIC50 means the negative decadic logarithm of the IC50, by convention in mol/L. High values mean a small IC50, low ones a large IC50. Compound `O=C1Nc2cc([N+](=O)[O-])ccc2N2CCCCC12` (stereo not given) gave a pIC50 of under 4.52.

Regarding `O=C1Nc2ccccc2N2CCCC12` (stereo not given), the pIC50 is under 4.52.

With `CC1(C)Nc2ccccc2NC1=O`, the pIC50 was under 4.52.

In turn, `Cc1ccc2c(c1)N1CCCCC1C(=O)N2` (stereo not given) had a pIC50 of 4.74.

The compound `N#Cc1ccc2c(c1)N1CCCCC1C(=O)N2` (stereo not given) showed a pIC50 of 5.12.

In turn, `CC(C)C1Nc2ccccc2NC1=O` (stereo not given) gave a pIC50 of 5.31.

With `O=C1Nc2cc(OC(F)(F)F)ccc2N2CCCCC12` (stereo not given), the negative logarithm of the IC50 (pIC50) was under 4.52.

For the compound `O=C1Nc2ccccc2NC12CCCCC2`, the pIC50 is under 4.52.

`CC(C)(C)C1Nc2ccccc2NC1=O` (stereo not given) had a pIC50 of under 4.52.

Regarding `Cc1cnc2c(c1)N1CCCCC1C(=O)N2` (stereo not given), the negative logarithm of the IC50 (pIC50) is under 4.52.

Take `O=C1Nc2cccnc2N2CCCCC12` (stereo not given): the pIC50 was under 4.52.

`O=C1Nc2ccccc2N2Cc3ccccc3CC12` (stereo not given) showed a pIC50 of under 4.52.

Consider `CCC(C)C1Nc2cc(Cl)ccc2NC1=O` (stereo not given), for which the pIC50 was 4.76.

For `O=C1Nc2ccccc2NC1Cc1ccccc1` (stereo not given), the pIC50 was under 4.52.

In turn, `O=C1Nc2ccc(Cl)cc2N2CCCCC12` (stereo not given) gave a pIC50 of 5.30.
